The results in this text go back to ChEMBL document CHEMBL1155189, “Bioactivity-guided isolation of cytotoxic constituents from stem-bark of Premna tomentosa” (Bioorg Med Chem Lett, 2009).

Holding throughout (type): functional, cell-based
The test system of one assay is MCF7. Nature of the assay: Cytotoxicity against human MCF7 cells after 48 hrs by MTT assay. The settings on record: MCF7, 48 h.
The subject of the next assay is HT-29. Nature of the assay: Cytotoxicity against human HT-29 cells after 48 hrs by MTT assay. On the technique in general: Formazan colour is commonly taken as a measure of viable cells.
For the next assay, the system named is A549. Nature of the assay: Cytotoxicity against human A549 cells after 48 hrs by MTT assay. The settings on record: A549, 48 h.
The test system of another assay is HepG2. As to the kind of experiment: Cytotoxicity against human HepG2 cells after 48 hrs by MTT assay.
Another assay relates to A-431. As to the kind of experiment: Cytotoxicity against human A431 cells after 48 hrs by MTT assay.
Where [1] appears, read: Homo sapiens, HT-29, 48 h, read-out: IC50.
Setting [2] is: Homo sapiens, HepG2, 48 h, read-out: IC50.

SMILES strings stand for the structures. In brackets after ≈: the same amount, converted by molar mass.

In the case of `CC(CO)c1cc2c(c(O)c1O)C[C@@]1(O)CCCC(C)(C)[C@@H]1CC2` (stereo not given in full), the IC50 is 16 µg/mL (≈ 47.7 µM) in the assay on MCF7; 16.2 µg/mL (≈ 48.5 µM) with HT-29 (setting [1]); 18.6 µg/mL (≈ 55.7 µM) in the assay with A549; 18.6 µg/mL (≈ 55.7 µM) with HepG2 (setting [2]); “Not Active” in the assay on A-431.
`CC(CO)c1cc(O)c2c(c1)[C@@H](O)C[C@H]1C(C)(C)CCC[C@]1(O)C2` (stereo not given in full): the half-maximal inhibitory concentration (IC50) with MCF7 is 15.8 µg/mL (≈ 47.4 µM); in the assay on HT-29 (setting [1]), 14.6 µg/mL (≈ 43.6 µM); in the assay with A549, 21.4 µg/mL (≈ 63.9 µM); in the assay with HepG2 (setting [2]), 34.4 µg/mL (≈ 103 µM); with A-431, “Not Active”.
For `CC(CO)c1cc(O)c2c(c1)CC[C@H]1C(C)(C)CCC[C@]1(O)C2` (stereo not given in full), the IC50 is 80.8 µg/mL (≈ 254 µM) with MCF7; “Not Active” in the assay with HT-29 (ht-29); 43.6 µg/mL (≈ 137 µM) in the assay on A549; “Not Active” in the assay with HepG2 (hepg2); “Not Active” with A-431.

By IC50 is commonly meant the concentration that gives 50% inhibition.
